# Reference: US20140271734A1, “BILE ACID RECYCLING INHIBITORS FOR TREATMENT OF BARRETT'S ESOPHAGUS AND GASTROESOPHAGEAL REFLUX DISEASE” (LUMENA PHARMACEUTICALS, INC., priority 2013, published 2014)
# How the values were obtained:
# [1] = test system: serum total bile acid (SBA); settings: previous experiments; cited from earlier work
# fecal bile acid (FBA) = test: Fecal bile acids in rats, LUM001 Q.D. for four days; type: in vivo, Wistar rats
# Description: Male Wistar rats (Charles River Laboratories) weighing 275-300 grams were single-housed in a constant temperature environment with alternating 12 hour light and dark cycles. All animals had continuous access to a commercial rodent diet as well as water. In each study rats were randomly assigned to either vehicle or treatment groups and were administered intragastric doses (Q.D. gavage) of drug dissolved in aqueous 0.2% (v/v) Tween 80 (2 ml kg body weight). The animals were dosed in the morning between 9:00 and 10:00 a.m. for four consecutive days. Fecal samples were collected on papers underneath each cage during the final 48 hour period of the study and analyzed for bile acid content.
# Cage papers containing the 48-hour fecal samples were collected at approximately 9:00 a.m. on the final day and used to determine the individual fecal bile acid (FBA) concentration for each animal. Fecal samples from each rat were weighed and a weight of distilled water (1 gram/mL) equal to 2 times the total weight of feces was added to each sample container (e.g., 20 mL water to 10 grams feces). The containers were stored overnight at 4° C. Each sample was homogenized for approximately 45 seconds using a small food processor to yield a homogeneous slurry. 1.4 grams of the homogenate was weighed into 16×100 polypropylene tubes and 2.6 mL of tertiary butanol/distilled water (2:0.6) added to yield a final concentration of 50% (v/v) tertiary butanol in water. The sample was extracted by incubation for 45 minutes in a 37° C. water bath, and subjected to centrifugation at 3000×g for 13 minutes and the supernatant extract collected.
# The concentration of bile acids […] in the extract was determined using a 96-well enzymatic assay system (4,5). 20 μl aliquots of each butanol extract was added to two sets of triplicate wells in a 96-well assay plate (one set on each half of the plate). Standardized sodium taurocholate solutions (0.2 and 0.9 mM) and standardized fecal extract solutions (previously made from pooled fecal samples collected from control and drug-treated rats) were analyzed in parallel to provide a bile acid standard curve and internal quality control samples, respectively. 20 μl aliquots of the sodium taurocholate standard were serially diluted to generate a standard curve and were added to two separate sets of triplicate wells.
# To each well, 230 μl of reaction mixture containing 1M hydrazine hydrate, 0.1 M pyrophosphate and 0.46 mg/ml NAD was added. To start the reaction, a 50 μl aliquot of either 3a-hydroxysteroid dehydrogenase enzyme (HSD; 0.8 units/ml) or assay buffer (0.1 M sodium pyrophosphate) was added to one set of triplicate wells for each sample, respectively, with the set containing the assay buffer serving as the reaction blank. All reagents were obtained from Sigma Chemical Co., St. Louis, Mo. Following a 60 minute incubation at room temperature, the optical density at 340 nm was measured and the mean of each set of triplicate wells was calculated. The difference in optical density between the corresponding wells containing the HSD enzyme and the wells containing the assay buffer was used to determine the bile acid concentration (mM) of each sample by comparison to the sodium taurocholate standard curve. The bile acid concentration of the extract and the weight of the fecal homogenate (grams) were used to calculate FBA concentration in mmoles/day for each animal. The mean FBA concentration (mmoles/day) of the vehicle group was subtracted from the FBA concentration of individual rats in a treatment group to yield the increase in FBA concentration due to drug treatment for that animal. A mean value for the increase in FBA for each group was determined and compared to the vehicle group used, to determine compound dosing efficacy. Data was the average from the two days of fecal collection (Mean±SEM, n=4-20). […]
# [2] = Pharmacokinetics of LUM002 100 mg single oral dose in humans; type: in vivo, human
# Description: Healthy male subjects, from 18 to 45 years of age, were given a single oral solution dose (100 mg in 100 mL) of LUM002 under fasting conditions. Blood samples for the determination of LUM002 plasma concentration were collected predose and 0.5, 1, 2, 3, 4, 5, 6, 8, 10, 12, 16, 24, and 48 hours after treatment administration. Plasma was obtained by centrifugation and […] processed for protein precipitation, centrifuged again to remove the precipitate and the supernatant prepared for LC-MSMS analysis. LUM002 plasma concentrations were determined using a validated liquid chromatography tandem mass spectrometry (LC-MSMS) assay with a lower limit of quantification (LLOQ) of 0.1 ng/mL. LUM002 plasma concentrations were used to determine the following pharmacokinetic parameters using standard noncompartmental techniques: Cmax, Tmax, AUClast, and, if applicable due to the low-absorbable characteristics of LUM002, also AUC, AUC0-24 and t1/2.
# [3] = 100 mg single oral dose, Geometric Mean, N=6
# [4] = 100 mg single oral dose, Median, N=6
# [5] = 100 mg single oral dose, Subject 250001149
# [6] = 100 mg single oral dose, Subject 250001150
# [7] = 100 mg single oral dose, Subject 250001151
# [8] = 100 mg single oral dose, Subject 250001154
# [9] = 100 mg single oral dose, Subject 250001155
# [10] = 100 mg single oral dose, Subject 750001156
# [11] = 100 mg single oral dose, mean, N=6
structure (smiles),measurement,setting,value
CCCCC1(CCCC)CS(=O)(=O)c2ccc(N(C)C)cc2[C@@H](c2ccc(OCc3ccc(C[N+]45CCN(CC4)CC5)cc3)cc2)[C@H]1O [LUM001],Time LUM001 remains active,[1],more than 4.5 hours
same,Fecal Bile Acids,fecal bile acid (FBA); Q.D. 0.0006 mg/kg/day,34 µmol/day
same,"Fecal Bile Acids, Increase over Vehicle (Delta)",fecal bile acid (FBA); Q.D. 0.0006 mg/kg/day,12.1 µmol/day
same,Fecal Bile Acids,fecal bile acid (FBA); Q.D. 0.002 mg/kg/day,26.6 µmol/day
same,"Fecal Bile Acids, Increase over Vehicle (Delta)",fecal bile acid (FBA); Q.D. 0.002 mg/kg/day,4.1 µmol/day
same,Fecal Bile Acids,fecal bile acid (FBA); Q.D. 0.003 mg/kg/day,31.3 µmol/day
same,"Fecal Bile Acids, Increase over Vehicle (Delta)",fecal bile acid (FBA); Q.D. 0.003 mg/kg/day,10.7 µmol/day
same,Fecal Bile Acids,fecal bile acid (FBA); Q.D. 0.008 mg/kg/day,25.8 µmol/day
same,"Fecal Bile Acids, Increase over Vehicle (Delta)",fecal bile acid (FBA); Q.D. 0.008 mg/kg/day,5.9 µmol/day
same,Fecal Bile Acids,fecal bile acid (FBA); Q.D. 0.016 mg/kg/day,41.6 µmol/day
same,"Fecal Bile Acids, Increase over Vehicle (Delta)",fecal bile acid (FBA); Q.D. 0.016 mg/kg/day,24.7 µmol/day
same,Fecal Bile Acids,fecal bile acid (FBA); Q.D. 0.04 mg/kg/day,44 µmol/day
same,"Fecal Bile Acids, Increase over Vehicle (Delta)",fecal bile acid (FBA); Q.D. 0.04 mg/kg/day,21.7 µmol/day
same,Fecal Bile Acids,fecal bile acid (FBA); Q.D. 0.08 mg/kg/day,55.6 µmol/day
same,"Fecal Bile Acids, Increase over Vehicle (Delta)",fecal bile acid (FBA); Q.D. 0.08 mg/kg/day,35.2 µmol/day
same,Fecal Bile Acids,fecal bile acid (FBA); Q.D. 0.2 mg/kg/day,62.7 µmol/day
same,"Fecal Bile Acids, Increase over Vehicle (Delta)",fecal bile acid (FBA); Q.D. 0.2 mg/kg/day,40.8 µmol/day
same,Fecal Bile Acids,fecal bile acid (FBA); Q.D. 0.4 mg/kg/day,62.3 µmol/day
same,"Fecal Bile Acids, Increase over Vehicle (Delta)",fecal bile acid (FBA); Q.D. 0.4 mg/kg/day,47 µmol/day
same,Fecal Bile Acids,fecal bile acid (FBA); Q.D. 2 mg/kg/day,71.6 µmol/day
same,"Fecal Bile Acids, Increase over Vehicle (Delta)",fecal bile acid (FBA); Q.D. 2 mg/kg/day,54.6 µmol/day
same,Fecal Bile Acids,"fecal bile acid (FBA); all doses, Q.D. gavage for four days",significantly increased fecal bile acids for all doses
"CCCC[C@]1(CC)CS(=O)(=O)c2ccc(N(C)C)cc2[C@@H](c2cccc(NC(=O)N[C@@H]3O[C@H](COS(=O)(=O)[O-])[C@@H](O)[C@H](OCc4ccccc4)[C@H]3O)c2)[C@H]1O.CCO.O.[K+] [LUM002, potassium((2R,3R,4S,5R,6R)-4-benzyloxy-6-{3-[3-((3S,4R,5R)-3-butyl-7-dimethylamino-3-ethyl-4-hydroxy-1,1-dioxo-2,3,4,5-tetrahydro-1H-benzo[b]thiepin-5-yl)-phenyl]-ureido}-3,5-dihydroxy-tetrahydro-pyran-2-ylmethyl)sulphate ethanolate, hydrate]",AUClast,[2]; [3],0.187 ng·h/mL
same,Cmax,[2]; [3],0.197 ng/mL
same,Tmax,[2]; [3],3.22 h
same,tlast,[2]; [3],4.93 h
same,AUClast,[2]; [4],0.148 ng·h/mL
same,Cmax,[2]; [4],0.216 ng/mL
same,Tmax,[2]; [4],5.00 h
same,tlag,[2]; [4],1.00 h
same,tlast,[2]; [4],5.00 h
same,AUC0-24,[2]; [5],1.92 ng·h/mL
same,AUCExt,[2]; [5],39%
same,AUClast,[2]; [5],1.19 ng·h/mL
same,Cmax,[2]; [5],0.300 ng/mL
same,Tmax,[2]; [5],5.00 h
same,t1/2z,[2]; [5],3.39 h
same,tlag,[2]; [5],0.00 h
same,tlast,[2]; [5],8.00 h
same,AUClast,[2]; [6],0.0815 ng·h/mL
same,Cmax,[2]; [6],0.163 ng/mL
same,Tmax,[2]; [6],5.00 h
same,tlag,[2]; [6],4.00 h
same,tlast,[2]; [6],5.00 h
same,AUClast,[2]; [7],0.0645 ng·h/mL
same,Cmax,[2]; [7],0.129 ng/mL
same,Tmax,[2]; [7],3.00 h
same,tlag,[2]; [7],2.00 h
same,tlast,[2]; [7],3.00 h
same,AUClast,[2]; [8],0.215 ng·h/mL
same,Cmax,[2]; [8],0.269 ng/mL
same,Tmax,[2]; [8],6.00 h
same,tlag,[2]; [8],0.00 h
same,tlast,[2]; [8],6.00 h
same,AUClast,[2]; [9],0.522 ng·h/mL
same,Cmax,[2]; [9],0.286 ng/mL
same,Tmax,[2]; [9],0.50 h
same,tlag,[2]; [9],0.00 h
same,tlast,[2]; [9],4.00 h
same,AUClast,[2]; [10],0.0600 ng·h/mL
same,Cmax,[2]; [10],0.120 ng/mL
same,Tmax,[2]; [10],5.00 h
same,tlag,[2]; [10],4.00 h
same,tlast,[2]; [10],5.00 h
same,AUClast,[2]; [11],0.355 ng·h/mL
same,Cmax,[2]; [11],0.211 ng/mL
same,Tmax,[2]; [11],4.08 h
same,tlag,[2]; [11],1.67 h
same,tlast,[2]; [11],5.17 h
same,LUM002 dose systemically absorbed,"[2]; healthy male subjects, single oral solution 100 mg, fasting",Less than 1%
